{"source": "patent US20230099293A1", "about": "“OGA INHIBITOR COMPOUNDS” (priority 2019, published 2023)", "key": {"hOGA": {"target": "T1, hOGA (Homo sapiens, UniProt O60502)", "T1 construct": "endogenous in cells; host or cells: HEK293 cells inducible for P301L mutant human Tau (isoform 2N4R)", "T1 sequence (O60502 1-916)": "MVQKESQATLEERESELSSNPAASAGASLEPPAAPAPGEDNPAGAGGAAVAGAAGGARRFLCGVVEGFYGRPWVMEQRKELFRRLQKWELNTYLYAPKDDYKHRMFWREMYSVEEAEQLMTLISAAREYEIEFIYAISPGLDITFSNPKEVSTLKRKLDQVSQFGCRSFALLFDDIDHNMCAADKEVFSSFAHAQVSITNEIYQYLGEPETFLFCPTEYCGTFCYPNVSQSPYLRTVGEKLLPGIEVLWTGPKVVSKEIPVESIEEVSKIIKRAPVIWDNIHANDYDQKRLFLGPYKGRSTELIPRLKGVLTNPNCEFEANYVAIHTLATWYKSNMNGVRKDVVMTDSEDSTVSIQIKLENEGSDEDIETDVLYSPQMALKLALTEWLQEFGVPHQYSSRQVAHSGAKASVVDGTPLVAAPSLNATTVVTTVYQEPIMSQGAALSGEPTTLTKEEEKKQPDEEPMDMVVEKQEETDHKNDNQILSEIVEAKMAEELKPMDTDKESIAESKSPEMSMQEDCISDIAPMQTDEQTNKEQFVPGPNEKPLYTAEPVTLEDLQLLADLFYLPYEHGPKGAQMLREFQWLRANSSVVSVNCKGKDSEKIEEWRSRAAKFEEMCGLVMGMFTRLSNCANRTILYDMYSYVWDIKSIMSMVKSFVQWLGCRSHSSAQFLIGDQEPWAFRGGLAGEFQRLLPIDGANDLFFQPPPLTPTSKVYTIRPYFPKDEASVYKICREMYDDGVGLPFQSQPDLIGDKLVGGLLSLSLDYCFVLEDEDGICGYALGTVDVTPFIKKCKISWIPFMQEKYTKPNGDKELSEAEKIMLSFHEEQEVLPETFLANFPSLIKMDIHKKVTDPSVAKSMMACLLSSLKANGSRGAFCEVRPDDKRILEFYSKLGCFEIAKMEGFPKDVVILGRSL", "test": "OGA cellular assay (ICC detection of O-GlcNAcylated proteins in HEK293 cells inducible for P301L mutant human Tau)", "format": "cell-based", "set-up": "Emax: dose or concentration left out as unconfirmed", "settings": "for EC50: Cellular hOGA, pEC50, Table 5, HEK293 P301L Tau cells, 6 hours incubation, O-GlcNAcylation readout; for Emax: HEK293, read-out: Cellular Emax (%)", "method": "HEK293 cells inducible for P301L mutant human Tau (isoform 2N4R) were established at Janssen. Thiamet-G was used for both plate validation (high control) and as reference compound (reference EC50 assay validation). OGA inhibition is evaluated through the immunocytochemical (ICC) detection of O-GlcNAcylated proteins by the use of a monoclonal antibody (CTD110.6; Cell Signaling, #9875) detecting O-GlcNAcylated residues as previously described (Dorfmueller et al. 2010 Chemistry & biology, 17:1250). Inhibition of OGA will result in an increase of O-GlcNAcylated protein levels resulting in an increased signal in the experiment. Cell nuclei are stained with Hoechst to give a cell culture quality control and a rough estimate of immediate compounds toxicity, if any. ICC pictures are imaged with a Perkin Elmer Opera Phenix plate microscope and quantified with the provided software Perkin Elmer Harmony 4.1.\nCells were propagated in DMEM high Glucose (Sigma, #D5796) following standard procedures. 2 days before the cell assay cells are split, counted and seeded in Poly-D-Lysine (PDL) coated 96-wells (Greiner, #655946) plate at a cell density of 12,000 cells per cm^2 (4,000 cells per well) in 100 μl of Assay Medium (Low Glucose medium is used to reduce basal levels of GlcNAcylation) (Park et al. 2014 The Journal of biological chemistry 289:13519). At the day of compound test medium from assay plates was removed and replenished with 90 μl of fresh Assay Medium. 10 μl of compounds at a 10 fold final concentration were added to the wells. Plates were centrifuged shortly before incubation in the cell incubator for 6 hours. DMSO concentration was set to 0.2%. Medium is discarded by applying vacuum. For staining of cells medium was removed and cells washed once with 100 μl D-PBS (Sigma, #D8537). From next step onwards unless other stated assay volume was always 50 μl and incubation was performed without agitation and at room temperature. Cells were fixed in 50 μl of a 4% paraformaldehyde (PFA, Alpha aesar, #043368) PBS solution for 15 minutes at room temperature. […] Before analysis samples were washed 2 times manually for 5 minutes in ICC base buffer.\nImaging is performed using Perkin Elmer Phenix Opera using a water 20× objective and recording 9 fields per well. Intensity readout at 488 nm is used as a measure of O-GlcNAcylation level of total proteins in wells. To assess potential toxicity of compounds nuclei were counted using the Hoechst staining. IC50-values are calculated using parametric non-linear regression model fitting. As a maximum inhibition Thiamet Gat a 200 uM concentration is present on each plate. In addition, a concentration response of Thiamet G is calculated on each plate."}, "[1]": {"target": "T2, recombinant human Meningioma Expressed Antigen 5 (MGEA5), also referred to as O-GlcNAcase (OGA) (Homo sapiens, UniProt O60502)", "T2 construct": "Full length OGA enzyme was purchased at OriGene (cat #TP322411); purchased OriGene TP322411", "T2 sequence (O60502 1-916)": "T1 sequence (O60502 1-916)", "test": "OGA biochemical assay (inhibition of FM-GlcNAc hydrolysis, fluorescence)", "settings": "for IC50: Enzymatic hOGA, pIC50, Table 5, full length OGA 2 nM, FM-GlcNAc 100 uM, 6 h at room temperature; for Emax: read-out: Enzymatic Emax (%)", "method": "The hydrolysis FM-GlcNAc (Marker Gene technologies, cat #M1485) results in the formation of β-D-N-glucosamineacetate and fluorescein. The fluorescence of the latter can be measured at excitation wavelength 485 nm and emission wavelength 538 nm. An increase in enzyme activity results in an increase in fluorescence signal. Full length OGA enzyme was purchased at OriGene (cat #TP322411). The enzyme was stored in 25 mM Tris.HCl, pH 7.3, 100 mM glycine, 10% glycerol at −20° C. […] The assay was performed in 200 mM Citrate/phosphate buffer supplemented with 0.005% Tween-20. 35.6 g Na2HIPO42H2O (Sigma, #C0759) were dissolved in 1 L water to obtain a 200 mM solution. […] The buffer to stop the reaction consists of a 500 mM Carbonate buffer, pH 11.0. […] OGA was used at a 2 nM concentration and FM-GlcNAc at a 100 uM final concentration. Dilutions were prepared in assay buffer.\nPlates were pre-incubated for 60 min at room temperature and then 2 μl FM-GlcNAc substrate mix added. […] Plates were briefly centrifuged for 1 min at 1000 rpm and incubate at room temperature for 6 h. To stop the reaction 5 μl STOP buffer were added and plates centrifuge again 1 min at 1000 rpm. Fluorescence was quantified in the Thermo Scientific Fluoroskan Ascent or the PerkinElmer EnVision with excitation wavelength 485 nm and emission wavelength 538 nm.\nFor analysis a best-fit curve is fitted by a minimum sum of squares method. From this an IC50 value and Hill coefficient was obtained. High control (no inhibitor) and low control (saturating concentrations of standard inhibitor) were used to define the minimum and maximum values."}}}
{"smiles": "Cc1ccc(-n2nc(C)c(Nc3nccc4c3ncn4CC(=O)N(C)C)c2C)cc1C", "note": "[Compound 42]", "values": [{"measurement": "EC50", "setting": "hOGA", "result": 295, "unit": "nM"}, {"measurement": "Emax", "setting": "hOGA", "result": 70, "unit": "%"}, {"measurement": "IC50", "setting": "[1]", "result": 21.9, "unit": "nM"}, {"measurement": "Emax", "setting": "[1]", "result": 93, "unit": "%"}, {"measurement": "melting point", "result": 144.7, "unit": "°C"}]}
{"smiles": "Cc1cc(C)cc(-n2nc(C)c(Nc3nccc4c3ncn4CC(=O)N(C)C)c2C)c1", "note": "[Compound 43]", "values": [{"measurement": "EC50", "setting": "hOGA", "result": 437, "unit": "nM"}, {"measurement": "Emax", "setting": "hOGA", "result": 65, "unit": "%"}, {"measurement": "IC50", "setting": "[1]", "result": 14.8, "unit": "nM"}, {"measurement": "Emax", "setting": "[1]", "result": 99, "unit": "%"}, {"measurement": "melting point", "result": 154.7, "unit": "°C"}]}
{"smiles": "COc1ccc(-n2nc(C)c(Nc3nccc4c3ncn4CC(=O)N(C)C)c2C)cc1", "note": "[Compound 44]", "values": [{"measurement": "EC50", "setting": "hOGA", "result": 457, "unit": "nM"}, {"measurement": "Emax", "setting": "hOGA", "result": 64, "unit": "%"}, {"measurement": "IC50", "setting": "[1]", "result": 27.5, "unit": "nM"}, {"measurement": "Emax", "setting": "[1]", "result": 99, "unit": "%"}, {"measurement": "melting point", "result": 199.9, "unit": "°C"}]}
{"smiles": "Cc1ccc(-n2nc(C)c(Nc3nccc4c3ncn4CC(=O)N(C)C)c2C)cc1", "note": "[Compound 45]", "values": [{"measurement": "EC50", "setting": "hOGA", "result": 550, "unit": "nM"}, {"measurement": "Emax", "setting": "hOGA", "result": 94, "unit": "%"}, {"measurement": "IC50", "setting": "[1]", "result": 23.4, "unit": "nM"}, {"measurement": "Emax", "setting": "[1]", "result": 94, "unit": "%"}, {"measurement": "melting point", "result": 214.9, "unit": "°C"}]}
{"smiles": "Cc1cc(C#N)cc(C)c1Nc1nccc2c1ncn2CC(=O)N(C)C", "note": "[Compound 46]", "values": [{"measurement": "EC50", "setting": "hOGA", "result": 468, "unit": "nM"}, {"measurement": "Emax", "setting": "hOGA", "result": 69, "unit": "%"}, {"measurement": "IC50", "setting": "[1]", "result": 13.5, "unit": "nM"}, {"measurement": "Emax", "setting": "[1]", "result": 92, "unit": "%"}, {"measurement": "melting point", "result": 263.4, "unit": "°C"}]}
{"smiles": "CC(C)c1cc(F)cc(Cl)c1Nc1nccc2c1ncn2CC(=O)N(C)C", "note": "[Compound 47]", "values": [{"measurement": "EC50", "setting": "hOGA", "result": 67.6, "unit": "nM"}, {"measurement": "Emax", "setting": "hOGA", "result": 110, "unit": "%"}, {"measurement": "IC50", "setting": "[1]", "result": 13.5, "unit": "nM"}, {"measurement": "Emax", "setting": "[1]", "result": 97, "unit": "%"}, {"measurement": "melting point", "result": 251.8, "unit": "°C"}]}
{"smiles": "Cc1cc(C(F)(F)F)cc(C)c1Nc1nccc2c1ncn2CC(=O)N1CCCC1", "note": "[Compound 49]", "values": [{"measurement": "EC50", "setting": "hOGA", "result": 646, "unit": "nM"}, {"measurement": "Emax", "setting": "hOGA", "result": 57, "unit": "%"}, {"measurement": "IC50", "setting": "[1]", "result": 93.3, "unit": "nM"}, {"measurement": "Emax", "setting": "[1]", "result": 95, "unit": "%"}, {"measurement": "melting point", "result": 196.6, "unit": "°C"}]}
{"smiles": "Cc1cc(C(F)(F)F)cc(C)c1Nc1nccc2c1ncn2CC(=O)N1CCC1", "note": "[Compound 50]", "values": [{"measurement": "EC50", "setting": "hOGA", "result": 933, "unit": "nM"}, {"measurement": "Emax", "setting": "hOGA", "result": 48, "unit": "%"}, {"measurement": "IC50", "setting": "[1]", "result": 126, "unit": "nM"}, {"measurement": "Emax", "setting": "[1]", "result": 94, "unit": "%"}, {"measurement": "melting point", "result": 176.4, "unit": "°C"}]}
{"smiles": "Cc1cc(C(F)(F)F)cc(C)c1Nc1nccc2c1ncn2CC(=O)N(C)C1CC1", "note": "[Compound 52]", "values": [{"measurement": "EC50", "setting": "hOGA", "result": 138, "unit": "nM"}, {"measurement": "Emax", "setting": "hOGA", "result": 73, "unit": "%"}, {"measurement": "IC50", "setting": "[1]", "result": 8.13, "unit": "nM"}, {"measurement": "Emax", "setting": "[1]", "result": 102, "unit": "%"}, {"measurement": "melting point", "result": 199.8, "unit": "°C"}]}
